Results on 21 compounds are retold here after patent USRE47689E1, “Compounds for treating spinal muscular atrophy” (PTC Therapeutics, Inc., priority 2011, dated 2019).

Series [1] deals with Smn protein. Nature of the series: Smn protein assay in cultured cells (SMN HTRF). The note with it: 48 hours; for EC1.5x (concentration giving 1.5-fold Smn protein increase): SMA Type 1 patient fibroblast cells (GM03813), 7-point concentration curve, SMN HTRF, concentration producing 1.5 times Smn protein vs DMSO vehicle control, read-out: EC1.5x for Smn protein expression; for maximum fold (Fold) increase of Smn protein: SMA patient fibroblast cells, 7-point concentration data, fold increase relative to vehicle control (SMN HTRF). The series is classed as cell-based, human. In short, it runs like this: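 Smn in SMA fibroblast lysates, measured by anti-SMN HTRF after 48 h compound exposure; EC1.5x from fold change over vehicle.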

Series [2] deals with SMN2 minigene (full length SMN2 minigene mRNA containing SMN2 exon 7). The experiment in a line: SMN2 minigene mRNA splicing RT-qPCR assay in cultured cells. The note with it: Homo sapiens, HEK293-H; HEK293H cells stably transfected with SMN2-A minigene; 24 hours; 7-point concentration curve; 1.5-fold relative to vehicle-treated cells; read-out: EC1.5x for production of full length SMN2 mRNA. The series is classed as cell-based, human. In short, it runs like this: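 Full-length SMN2 minigene mRNA (exon 7 included), minigene-specific and not endogenous SMN, quantified by RT-qPCR multiplexed with GAPDH in stably transfected HEK293H cells after 24 h compound exposure at 37° C. Abundance from efficiency-corrected Ct, normalized to GAPDH and vehicle; EC1.5x reported as star bins.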

For `Cc1cc2cc(-c3cc4ccc(N5CCN(CCO)CC5)cc4oc3=O)oc2c(C)n1` [Compound 774, 3-(5,7-dimethylfuro[2,3-c]pyridin-2-yl)-7-[4-(2-hydroxyethyl)piperazin-1-yl]-2H-chromen-2-one], the melting point is 203 to 205 °C. Further, in series [1], the EC1.5x (concentration giving 1.5-fold Smn protein increase) was less than 300 nM; the “maximum fold (Fold) increase of Smn protein” value (“maximum fold (Fold) increase” below) is “**** (fold increase between >1.5 and ≤1.65)”. In series [2], the EC (1.5-fold) was less than 0.1 µM.

`Cc1cn2cc(-c3cc4ccc(N(C)C5CCN(Cc6ccccc6)C5)cc4oc3=O)nc2c(C)n1` (centres unmarked) [Compound 616, 7-[(1-benzylpyrrolidin-3-yl)(methyl)amino]-3-(6,8-dimethylimidazo[1,2-a]pyrazin-2-yl)-2H-chromen-2-one] came in with a melting point of 150 to 152 °C. In addition, in series [1], the “maximum fold (Fold) increase” value is “** (fold increase between >1.2 and ≤1.35)”. In addition, in series [2], the EC (1.5-fold) lay within 0.1 to 0.3 µM.

As to `Cc1cn2cc(-c3cc4ccc(CN5CCCCC5)cc4oc3=O)nc2c(C)n1` [Compound 847, 3-(6,8-dimethylimidazo[1,2-a]pyrazin-2-yl)-7-(piperidin-1-ylmethyl)-2H-chromen-2-one], the melting point was 191 to 193 °C. The “maximum fold (Fold) increase” value in series [1] was “** (fold increase between >1.2 and ≤1.35)”. For the same compound, in series [2], the EC (1.5-fold) was 1 to 3 µM.

In turn, `COc1cc(OC)cc(-c2cc3ccc(N4CCN[C@H](C)C4)cc3oc2=O)c1` [Compound 412, 3-(3,5-dimethoxyphenyl)-7-[(3R)-3-methylpiperazin-1-yl]-2H-chromen-2-one] displayed a melting point of 148 to 150 °C. The “maximum fold (Fold) increase” value in series [1] was “* (maximum fold increase of ≤1.2)”. Also, the EC (1.5-fold) in series [2] lay within 3 to 30 µM.

The compound `Cc1cn2cc(-c3cc4ccc(N5CCC(N)CC5)cc4oc3=O)nc2c(C)n1` [Compound 919, 7-(4-aminopiperidin-1-yl)-3-(6,8-dimethylimidazo[1,2-a]pyrazin-2-yl)-2H-chromen-2-one] registered a melting point of 262 to 269 °C. In addition, in series [1], the EC1.5x (concentration giving 1.5-fold Smn protein increase) is less than 300 nM; the “maximum fold (Fold) increase” value is “**** (fold increase between >1.5 and ≤1.65)”. The EC (1.5-fold) in series [2] was less than 0.1 µM.

For the compound `Cc1cn2cc(-c3cc4ccc(N5CCCN(C)CC5)cc4oc3=O)ccc2n1` [Compound 653, 7-(4-methyl-1,4-diazepan-1-yl)-3-(2-methylimidazo[1,2-a]pyridin-6-yl)-2H-chromen-2-one], the melting point lay within 175 to 178 °C. In addition, the “maximum fold (Fold) increase” value in series [1] is “*** (fold increase between >1.35 and ≤1.5)”. The EC (1.5-fold) in series [2] lay in the range of 0.1 to 0.3 µM.

For the compound `Cc1cn2cc(-c3ccc4cc(N5CCNCC5)c(=O)oc4c3)ccc2n1` [Cpd 818, 7-(2-methylimidazo[1,2-a]pyridin-6-yl)-3-(piperazin-1-yl)-2H-chromen-2-one], the melting point fell in the range of 174 to 178 °C. Also, in series [1], the “maximum fold (Fold) increase” value was “* (maximum fold increase of ≤1.2)”. In addition, the EC (1.5-fold) in series [2] lay in the range of 1 to 3 µM.

For `CCN1CCC(c2ccc3cc(-c4ccc5nn(C)cc5c4)c(=O)oc3c2)CC1` [Compound 863, 7-(1-ethylpiperidin-4-yl)-3-(2-methyl-2H-indazol-5-yl)-2H-chromen-2-one], the melting point lay in the range of 196 to 198 °C. Moreover, in series [1], the EC1.5x (concentration giving 1.5-fold Smn protein increase) was 300 to 1000 nM and the “maximum fold (Fold) increase” value was “***** (fold increase >1.65)”. The EC (1.5-fold) in series [2] lay within 0.1 to 0.3 µM.

For the compound `Cc1cn2cc(-c3cc4ccc(N5CCN6CCCCC6C5)cc4oc3=O)cc2cn1` (centres unmarked) [Compound 646, 3-(3-methylpyrrolo[1,2-a]pyrazin-7-yl)-7-(octahydro-2H-pyrido[1,2-a]pyrazin-2-yl)-2H-chromen-2-one], the melting point was 218 to 221 °C. Further, in series [1], the EC1.5x (concentration giving 1.5-fold Smn protein increase) is less than 300 nM; the “maximum fold (Fold) increase” value is “**** (fold increase between >1.5 and ≤1.65)”. Besides, in series [2], the EC (1.5-fold) was less than 0.1 µM.

The compound `Cc1nn2cc(-c3cc4ccc(N5CCN[C@@H](C)C5)cc4oc3=O)nc2s1` [Compound 482, 3-(2-methylimidazo[2,1-b][1,3,4]thiadiazol-6-yl)-7-[(3S)-3-methylpiperazin-1-yl]-2H-chromen-2-one] returned a melting point of 205 to 209 °C. For the same compound, in series [1], the EC1.5x (concentration giving 1.5-fold Smn protein increase) was less than 300 nM; the “maximum fold (Fold) increase” value is “**** (fold increase between >1.5 and ≤1.65)”. The EC (1.5-fold) in series [2] was less than 0.1 µM.

With `CN(C)Cc1ccc2cc(-c3nc4c(Cl)cccc4s3)c(=O)oc2c1` [Cpd 14, 3-(4-chloro-1,3-benzothiazol-2-yl)-7-[(dimethylamino)methyl]-2H-chromen-2-one], the melting point lay in the range of 179 to 182 °C. The “maximum fold (Fold) increase” value in series [1] is “*** (fold increase between >1.35 and ≤1.5)”. The EC (1.5-fold) in series [2] fell in the range of 0.3 to 1 µM.

Regarding `Cc1ccc2nc(-c3cc4ccc(CN5CCC(O)C5)cc4oc3=O)cn2c1` (centres unmarked) [Compound 253, 7-[(3-hydroxypyrrolidin-1-yl)methyl]-3-(6-methylimidazo[1,2-a]pyridin-2-yl)-2H-chromen-2-one], the melting point was 227 to 230 °C. Further, the “maximum fold (Fold) increase” value in series [1] is “* (maximum fold increase of ≤1.2)”. Besides, the EC (1.5-fold) in series [2] lay in the range of 1 to 3 µM.

With `O=c1oc2cc(N3CCNCC3)ccc2cc1-c1cn2cccc(C(F)(F)F)c2n1` [Compound 209, 7-(piperazin-1-yl)-3-[8-(trifluoromethyl)imidazo[1,2-a]pyridin-2-yl]-2H-chromen-2-one], the melting point lay in the range of 249 to 252 °C. In series [1], the “maximum fold (Fold) increase” value was “* (maximum fold increase of ≤1.2)”. Moreover, in series [2], the EC (1.5-fold) is 0.3 to 1 µM.

`Cc1cn2cc(-c3cc4ccc(N5CCN(CCO)CC5)cc4oc3=O)nc2c(C)n1` [Compound 654, 3-(6,8-dimethylimidazo[1,2-a]pyrazin-2-yl)-7-[4-(2-hydroxyethyl)piperazin-1-yl]-2H-chromen-2-one] registered a melting point of 231 to 233 °C. Further, in series [1], the EC1.5x (concentration giving 1.5-fold Smn protein increase) is less than 300 nM; the “maximum fold (Fold) increase” value was “**** (fold increase between >1.5 and ≤1.65)”. The EC (1.5-fold) in series [2] was less than 0.1 µM.

`Cc1cn2cc(-c3cc4ccc(CCCNCC5CCCO5)cc4oc3=O)nc2c(C)n1` (centres unmarked) [Compound 932, 3-(6,8-dimethylimidazo[1,2-a]pyrazin-2-yl)-7-{3-[(tetrahydrofuran-2-ylmethyl)amino]propyl}-2H-chromen-2-one] displayed a melting point of 147 to 150 °C. Moreover, in series [1], the EC1.5x (concentration giving 1.5-fold Smn protein increase) is less than 300 nM; the “maximum fold (Fold) increase” value is “**** (fold increase between >1.5 and ≤1.65)”. Besides, the EC (1.5-fold) in series [2] is less than 0.1 µM.

For `Cc1ccc2nc(-c3cc4ccc(N5C[C@@H](C)N[C@@H](C)C5)cc4oc3=O)cn2c1` [Compound 174, 7-[(3R,5S)-3,5-dimethylpiperazin-1-yl]-3-(6-methylimidazo[1,2-a]pyridin-2-yl)-2H-chromen-2-one], the melting point lay within 235 to 237 °C. Besides, in series [1], the “maximum fold (Fold) increase” value is “*** (fold increase between >1.35 and ≤1.5)”. For the same compound, the EC (1.5-fold) in series [2] was less than 0.1 µM.

In turn, `O=c1oc2cc(N3CCNCC3)ccc2cc1-c1ccc2c(c1)OCO2` [Compound 486, 3-(1,3-benzodioxol-5-yl)-7-(piperazin-1-yl)-2H-chromen-2-one] showed a melting point of 218 to 220 °C. In addition, in series [1], the “maximum fold (Fold) increase” value was “* (maximum fold increase of ≤1.2)”. In addition, the EC (1.5-fold) in series [2] is 3 to 30 µM.

Consider `Cc1nc(Cl)cn2cc(-c3cc4ccc(N5CCN(C)[C@@H](C)C5)cc4oc3=O)nc12` [Compound 727, 3-(6-chloro-8-methylimidazo[1,2-a]pyrazin-2-yl)-7-[(3S)-3,4-dimethylpiperazin-1-yl]-2H-chromen-2-one], for which the melting point was 251 to 253 °C. In series [1], the EC1.5x (concentration giving 1.5-fold Smn protein increase) lay within 1000 to 3000 nM; the “maximum fold (Fold) increase” value is “*** (fold increase between >1.35 and ≤1.5)”. For the same compound, in series [2], the EC (1.5-fold) is 0.1 to 0.3 µM.

As for `Cc1cn2cc(-c3cc4ccc(N5CCN(CCO)CC5)cc4oc3=O)nc2cn1` [Compound 837, 7-[4-(2-hydroxyethyl)piperazin-1-yl]-3-(6-methylimidazo[1,2-a]pyrazin-2-yl)-2H-chromen-2-one], the melting point fell in the range of 246 to 252 °C. For the same compound, in series [1], the EC1.5x (concentration giving 1.5-fold Smn protein increase) was less than 300 nM and the “maximum fold (Fold) increase” value was “***** (fold increase >1.65)”. For the same compound, the EC (1.5-fold) in series [2] is less than 0.1 µM.

`Cc1cnc2nc(-c3cc4ccc(N5CCCN(C)CC5)cc4oc3=O)cn2c1` [Compound 250, 7-(4-methyl-1,4-diazepan-1-yl)-3-(6-methylimidazo[1,2-a]pyrimidin-2-yl)-2H-chromen-2-one] came in with a melting point of 285 to 287 °C. In addition, in series [1], the EC1.5x (concentration giving 1.5-fold Smn protein increase) lay in the range of 1000 to 3000 nM; the “maximum fold (Fold) increase” value was “*** (fold increase between >1.35 and ≤1.5)”. In addition, the EC (1.5-fold) in series [2] lay within 0.1 to 0.3 µM.

Regarding `Cc1cc(C)c2nc(-c3cc4ccc(N5CCN[C@@H](C)C5)cc4oc3=O)cn2c1` [Compound 425, 3-(6,8-dimethylimidazo[1,2-a]pyridin-2-yl)-7-[(3S)-3-methylpiperazin-1-yl]-2H-chromen-2-one], the melting point is 221 to 226 °C. In addition, in series [1], the EC1.5x (concentration giving 1.5-fold Smn protein increase) fell in the range of 1000 to 3000 nM; the “maximum fold (Fold) increase” value is “*** (fold increase between >1.35 and ≤1.5)”. The EC (1.5-fold) in series [2] lay in the range of 0.1 to 0.3 µM.
